Here are results for one substance from paper PMC11187126, “Structure and dynamics of the pyroglutamylated RF-amide peptide QRFP receptor GPR103” (Nature Communications, 2024).

One may read the EC50 as the midpoint of the concentration-response curve. Low readings indicate greater potency, high ones weaker potency.

The assay has as its target T1, GPR103 Q125^3.32A (Homo sapiens, UniProt Q96P65, Q125A).
T1 construct: we used human full-length QRFPR-encoding plasmids; expressed in transfected cells; host or cells: HEK293 cells, pCAGGS vector
T1 sequence (Q96P65 1-431 Q125A): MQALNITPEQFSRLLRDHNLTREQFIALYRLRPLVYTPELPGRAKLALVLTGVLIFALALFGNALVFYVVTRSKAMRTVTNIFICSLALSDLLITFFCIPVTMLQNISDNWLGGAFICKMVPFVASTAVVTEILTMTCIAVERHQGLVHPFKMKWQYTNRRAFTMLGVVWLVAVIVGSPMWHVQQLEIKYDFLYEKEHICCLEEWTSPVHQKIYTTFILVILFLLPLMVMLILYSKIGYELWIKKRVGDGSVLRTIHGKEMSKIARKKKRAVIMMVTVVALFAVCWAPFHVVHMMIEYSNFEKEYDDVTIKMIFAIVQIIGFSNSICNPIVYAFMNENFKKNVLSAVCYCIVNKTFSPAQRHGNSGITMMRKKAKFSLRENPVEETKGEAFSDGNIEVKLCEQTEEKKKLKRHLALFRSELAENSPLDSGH
The experiment in a line: TGFα shedding assay; Exp. level WT (1:50). It counts as cell-based.

Read-outs that look alike come from different tables or passages of the source. No end group written: not given here.

With TSGPLGNLAEELNGYSRKKGGFSFRF-NH2 [QRFP26], the Emax is, setting by setting: (Exp. #1) 46.53 % WT; (Exp. #2) 25.38 % WT; (Exp. #3) 32.41 % WT; (mean, read-out: Emax) 34.8%; (n = 3, read-out: Emax) 35.7 ± 5.1%. Further, the EC50 (n = 3) is 0.282 µM.
